Assay results taken from patent US7399754B2, “N2-quinoline or isoquinoline substituted purine derivatives” (priority 2005, dated 2008).
Values after ≈ are worked out from the molar mass of the structure shown.

Key:
[1] = tested on: Lewis lung carcinomas; assay: Subcutaneous Lewis lung carcinoma growth in mice; type: in vivo; details: for Tumor vol.: daily intralesional injections 50 mg/kg
Description: (§1) To determine if Compound I could inhibit primary tumor growth, syngeneic mice (C57B 16/J) bearing subcutaneous Lewis lung carcinomas and H-22 liver cancer were treated with Compound I with daily intralesional injections of (50 mg/kg) 1 mg of Compound I per 20 g mouse body weight.
Inhibition of primary tumor growth was first observed at dose of 20 mg/kg/day. Increased doses of Compound I correlated with increased efficacy of tumor inhibition. Inhibition of metastatic growth occurred at doses of approximately 20 mg/kg/day. […] In contrast, tumor in animals treated with saline grew rapidly in size to >6.000 mm^3, leading to the demise of all animals on day 17 after tumor implantation.

[2] = tested on: LNCap prostate cancer cells; assay: Pulse-exposure clonal growth study; type: cell-based
Description: (§2) Pulse-exposure studies, using methods as described in Kubota et al., Cancer Res. 1998; 58: 3370-3375 and Campbell et al., J. Mol. Endocrinol.

[3] = tested on: PC-3 prostate cancer cells; assay: Pulse-exposure clonal growth study; type: cell-based; details: PC-3, pulse-exposure
Description: as §2

[4] = tested on: Du145 prostate cancer cells; assay: Pulse-exposure clonal growth study; type: cell-based
Description: as §2

[5] = tested on: H-22 liver cancer; assay: Subcutaneous H-22 liver cancer growth in mice; type: in vivo; details: 50 mg/kg daily intralesional, 14 days treatment period
Description: as §1

[6] = tested on: leukemia cells; assay: MTT and SRB growth inhibition assays; type: cell-based
Description: (§3) The anti-cancer activities of COMPOUND I were evaluated using the microtetrazoline (MTT) and sulforhodamine B (SRB) assays.

[7] = tested on: H-22 liver cancer cells; assay: MTT and SRB growth inhibition assays; type: cell-based
Description: as §3

[8] = tested on: Lewis lung carcinoma cells; assay: MTT and SRB growth inhibition assays; type: cell-based, murine; details: Mus musculus
Description: as §3

[9] = tested on: human cancer cells; assay: Human cancer cells transplanted to nude mice; type: in vivo
Description: The in vivo anti-cancer activities of COMPOUND I were further evaluated using various other human cancer cells transplanted to nude mice.

[10] = tested on: malignant cells; assay: Clonal proliferation, cell cycle and apoptosis of malignant cells in vitro; type: cell-based
Description: as §2

[11] = tested on: most cancer types; assay: MTT and SRB growth inhibition assays, many cancer types; type: cell-based
Description: as §3

**Q.** What does the source list for c1cnc2ccc(Nc3nc(NC4CC4)c4nc[nH]c4n3)cc2c1 [Compound I]?
**A.** Tumor vol. ([1]; day 2): 200 mm^3; Tumor vol. ([1]; day 4): 300 mm^3; Tumor vol. ([1]; day 6): 500 mm^3; Tumor vol. ([1]; day 8): 700 mm^3; Tumor vol. ([1]; day 10): 900 mm^3; Tumor vol. ([1]; day 12): 1200 mm^3; Tumor vol. ([1]; day 14): 1500 mm^3; Tumor vol. ([1]; day 16): 1800 mm^3; Tumor vol. ([1]; day 17): 2200 mm^3; toxicity ([1]; treated tumor-bearing mice): no detectable toxicity; dose at which inhibition of metastatic growth occurred ([1]; tumor-bearing mice): approximately 20 mg/kg/day; dose at which inhibition of primary tumor growth was first observed ([1]; tumor-bearing mice): 20 mg/kg/day; 50% inhibition (ED50) of clonal growth [2]: approximately 18 μg/ml; 50% inhibition (ED50) of clonal growth [3]: approximately 18 μg/ml; 50% inhibition (ED50) of clonal growth [4]: approximately 18 μg/ml; growth of H-22 liver cancer in mice [5]: primary tumor growth was inhibited; IC50 [6]: 2.5 µg/mL (≈ 7.88 µM); IC50 [7]: 2.24 µg/mL (≈ 7.06 µM); IC50 [8]: 2.81 µg/mL (≈ 8.85 µM); in vivo growth of human cancers [9]: inhibits in vivo growth of many types of human cancers; clonal proliferation of a variety of malignant cells in vitro ([10]; prostate and breast cancers, neuroepithelioma, melanoma, leukemia): inhibit the clonal proliferation; cell cycle arrest and apoptosis ([10]; some of these cells): induces cell cycle arrest and apoptosis; growth in vitro of many types of cancers ([11]; MTT and SRB assays): significantly inhibited growth; IC50 ([11]; most cancer types): 500 to 3000 nM
